Data as given in patent publication US20240122926A1, “APELIN RECEPTOR MODULATORS FOR TREATING MUSCLE CONDITIONS” (priority 2022, published 2024).

Tests used:
Assay type in all cases: in vivo, mouse
aged (18-month-old) mice [1] = assay: Cardiotoxin (CTX)-induced muscle injury, transcript levels, aged mice; details: for MyoD transcript level: 3 and 7 days
Protocol: (§1) Mice were i.p injected with buprenorphine (Centravet, 0.1 mg/kg) 30 minutes before injury and the day after. The day of the injury, mice were anesthetized with isoflurane inhalation and hindlimbs were shaved. Then, 10 μM of cardiotoxin (CTX, Latoxan, #L8102) was injected through two injections of 25 μl into the left tibialis muscle and two injections of 50 μl into the left gastrocnemius muscle, using a 22-gauge needle (Hamilton). Mice were euthanized 3 and 7 days after injury by cervical dislocation, muscles (PBS- and CTX-injected) were cut in two parts, one being snap frozen into liquid nitrogen for total RNA extraction and the other part being embedded into OCT, frozen in isopentane cooled with liquid nitrogen for histological analysis.

young (3-month-old) mice = assay: Cardiotoxin (CTX)-induced muscle injury, transcript levels, young mice
Protocol: as §1

aged (18-month-old) mice [2] = assay: Cardiotoxin (CTX)-induced muscle injury, histology of tibialis (cross-sectional area, centrally nucleated fibers)
Protocol: Impairment of muscle regeneration can contribute to age-related muscle weakness. This is particularly true in aged individuals who engage in physical activity. Exercise-induced muscle hypertrophy is linked to the capacity of muscle stem cells to be activated and promote regeneration.
Mice were i.p injected with buprenorphine (Centravet, 0.1 mg/kg) 30 minutes before injury and the day after. The day of the injury, mice were anesthetized with isoflurane inhalation and hindlimbs were shaved. […]
Mouse muscle samples were dissected and cryopreserved in OCT frozen in liquid nitrogen cooled isopentane. […] Images were captured using a digital camera (Nanozoomer, Hamamatsu) attached to a motorized fluorescence microscope or using Olympus VS120 Virtual Microscopy Slide Scanning System. The area covered by eMHC-positive fibers and degenerated area was determined manually across the entire sections using the VS-ASW FL software measurement tools. The size of myofibers with central nuclei was calculated from laminin/DAPI staining on all fibers of the section and area determination were performed across the entire sections, using an automated image processing algorithm developed internally using the MetaXpress software (Molecular Devices).

[3] = tibialis anterior, 7 days, both BGE-105 dosages

CSCC[C@H](NC(=O)[C@@H]1CCCN1C(=O)CNC(=O)[C@H](CCCCN)NC(=O)[C@H](Cc1c[nH]cn1)NC(=O)[C@H](CO)NC(=O)[C@H](CC(C)C)NC(=O)[C@H](CCCNC(=N)N)NC(=O)[C@@H]1CCCN1C(=O)[C@H](CCCNC(=N)N)NC(=O)[C@@H]1CCC(=O)N1)C(=O)N1CCC[C@H]1C(=O)N[C@@H](Cc1ccccc1)C(=O)O [Pyr^1-Apelin-13] was tested, and the MyoD transcript level (aged (18-month-old) mice [1]; gastrocnemius, both BGE-105 dosages) was “significant increase”, the Myf5 transcript level (aged (18-month-old) mice [1]; gastrocnemius, 3 or 7 days) was “no significant change” and the MyoG transcript level (aged (18-month-old) mice [1]; gastrocnemius, 3 or 7 days) was “no significant change”. The Pax7 transcript level (aged (18-month-old) mice [1]; gastrocnemius, 3 or 7 days) was “no significant change”, the MyHC8 transcript level (aged (18-month-old) mice [1]; gastrocnemius, any time point) was “does not show a change” and the MyoD transcript level (aged (18-month-old) mice [1]; tibialis anterior, both BGE-105 dosages) was “significant increase”. For the same compound, the Pax7 transcript level (aged (18-month-old) mice [1]; tibialis anterior, 7 days, BGE-105 50 and 200 mg/kg/day P.O., apelin 0.5 mol/kg/day injection) was “significant increase”, the MyHC3 transcript level (aged (18-month-old) mice [1]; [3]) was “significant increase” and the MyoG transcript level (aged (18-month-old) mice [1]; [3]) was “significant increase”. For the same compound, the Myf5 transcript level (young (3-month-old) mice; gastrocnemius, 3 or 7 days) was “no change”, the MyoD transcript level (young (3-month-old) mice; gastrocnemius, 3 or 7 days) was “no change” and the MyoG transcript level (young (3-month-old) mice; gastrocnemius, 3 or 7 days) was “no change”. The Pax7 transcript level (young (3-month-old) mice; gastrocnemius, 3 or 7 days) was “no change”, the MyHC8 transcript level (young (3-month-old) mice; gastrocnemius, 3 days, both BGE-105 dosages) was “non-significant increase” and the MyHC3 transcript level (young (3-month-old) mice; tibialis, 3 or 7 days) was “no significant change”. For the same compound, the MyHC8 transcript level (young (3-month-old) mice; tibialis, 3 or 7 days) was “no significant change”, the Myf5 transcript level (young (3-month-old) mice; tibialis, 3 or 7 days) was “no difference” and the MyoD transcript level (young (3-month-old) mice; tibialis, 3 or 7 days) was “no significant increase”. The MyoG transcript level (young (3-month-old) mice; tibialis, 3 or 7 days) was “no difference”, the Pax7 transcript level (young (3-month-old) mice; tibialis, 3 or 7 days) was “no change” and the “cross-sectional area of the tibialis” value (aged (18-month-old) mice [2]; 3 and 7 days post cardiotoxin, BA1 (50 mg/kg/d) and BA2 (200 mg/kg/d)) was “significant increase”. For the same compound, the “amount of centrally nucleated myofibers (CNM)” value (aged (18-month-old) mice [2]; 18-month-old mice after cardiotoxin, significant at the higher BGE-105 dose (200 mg/kg/day)) was “significant increase”.
